Assay results reported in patent US10577308B2, “Sodium channel modulators” (The Florey Institute of Neuroscience and Mental Health, priority 2015, dated 2020).
Where two headings read alike, the source gives them in different places.

Assays:
hNav1.2 = hNav1.2 (Homo sapiens (Human), UniProt Q99250); assay: Automated patch clamp (IonWorks Quattro) block of hNav1.2 channels in CHO cells; format: cell-based
Description: (§1) FIG. 1 depicts the voltage sequence used to measure inhibitory activity of compounds as described in Example 3. An automated patch clamp screening assay was used to measure the inhibitory effect (potency) of compounds in three conformational states of the sodium channel: (1) the tonic state (TP1); (2) the frequency-dependent (10 Hz) state (TP11) and (3) the inactivated state (TP12).
(§2) Test Protocol for Determining the Potency of Compounds on Nav1.2 and Nav1.6 Subtypes of Voltage-Gated Sodium Ion Channels Expressed in Mammalian Cells
(§3) Cell culture procedures: Chinese hamster ovary (CHO) cells were stably transfected with the cDNA sequence of either the human SCN2A or SCN8A genes to create hNav1.2 or hNav1.6 cells respectively. The cell lines were cultured in Ham's F-12 medium supplemented with 10% fetal bovine serum and antibiotics in a tissue incubator at 37° C. under a humidified air/CO2 mixture (95/5 v/v). On the day of the experiment, cells were washed twice with Hank's balanced salt solution, treated with trypsin, and resuspended in fresh culture media at a density of 4−6×10^6 cells in 20 ml. Immediately before placing in the IonWorks Quattro instrument, cells were washed in Hank's balanced salt solution to remove culture medium and re-suspended in 3 ml of Hank's balanced salt solution.
(§4) Automated patch clamp recordings of cells using the IonWorks Quattro Instrument: The assay used a 384 microwell plate, which enabled 20 compounds to be studied at four different concentrations in quadruplicate as well as allowing a vehicle control group and a positive control group using mexiletine at 8 different concentrations. Cells were added to the wells of the Population Patch Clamp planar electrode using a 48-channel pipettor in a volume of 6 μL, per well. After 5 minutes incubation at ambient temperature with compounds or vehicle, membrane currents were recorded using the patch clamp amplifier. The pulse pattern was repeated twice, before and after compound addition and peak current amplitudes were measured at three test pulses, TP1, TP11 and TP12 to measure Tonic Block, 10 Hz Frequency-dependent Block and Inactivation State Block, respectively.
(§5) Data analysis: Data acquisition and analyses were carried out using the IonWorks Quattro system operation software which uses an algorithm to correct data for leak currents. Concentration-response curves were fitted by non-linear least squares regression allowing calculation of an IC50 value (μM), being the concentration of the compound producing half-maximal inhibition.

hNav1.6 = hNav1.6 (Homo sapiens (Human), UniProt Q9UQD0); assay: Automated patch clamp (IonWorks Quattro) block of hNav1.6 channels in CHO cells; format: cell-based
Description: as §1, §2, §3, §4, §5

[1] = 10 Hz frequency-dependent block (TP11), read-out: IC50 Nav1.2 10 Hz block
[2] = Inactivated state block (TP12), read-out: IC50 Nav1.2 Inactivated state block
[3] = Tonic block (TP1), read-out: IC50 Nav1.2 Tonic block
[4] = 10 Hz frequency-dependent block (TP11), read-out: IC50 Nav1.6 10 Hz block
[5] = Inactivated state block (TP12), read-out: IC50 Nav1.6 Inactivated state block
[6] = Tonic block (TP1), read-out: IC50 Nav1.6 Tonic block

hNav1.2, sequence (Q99250 whole entry): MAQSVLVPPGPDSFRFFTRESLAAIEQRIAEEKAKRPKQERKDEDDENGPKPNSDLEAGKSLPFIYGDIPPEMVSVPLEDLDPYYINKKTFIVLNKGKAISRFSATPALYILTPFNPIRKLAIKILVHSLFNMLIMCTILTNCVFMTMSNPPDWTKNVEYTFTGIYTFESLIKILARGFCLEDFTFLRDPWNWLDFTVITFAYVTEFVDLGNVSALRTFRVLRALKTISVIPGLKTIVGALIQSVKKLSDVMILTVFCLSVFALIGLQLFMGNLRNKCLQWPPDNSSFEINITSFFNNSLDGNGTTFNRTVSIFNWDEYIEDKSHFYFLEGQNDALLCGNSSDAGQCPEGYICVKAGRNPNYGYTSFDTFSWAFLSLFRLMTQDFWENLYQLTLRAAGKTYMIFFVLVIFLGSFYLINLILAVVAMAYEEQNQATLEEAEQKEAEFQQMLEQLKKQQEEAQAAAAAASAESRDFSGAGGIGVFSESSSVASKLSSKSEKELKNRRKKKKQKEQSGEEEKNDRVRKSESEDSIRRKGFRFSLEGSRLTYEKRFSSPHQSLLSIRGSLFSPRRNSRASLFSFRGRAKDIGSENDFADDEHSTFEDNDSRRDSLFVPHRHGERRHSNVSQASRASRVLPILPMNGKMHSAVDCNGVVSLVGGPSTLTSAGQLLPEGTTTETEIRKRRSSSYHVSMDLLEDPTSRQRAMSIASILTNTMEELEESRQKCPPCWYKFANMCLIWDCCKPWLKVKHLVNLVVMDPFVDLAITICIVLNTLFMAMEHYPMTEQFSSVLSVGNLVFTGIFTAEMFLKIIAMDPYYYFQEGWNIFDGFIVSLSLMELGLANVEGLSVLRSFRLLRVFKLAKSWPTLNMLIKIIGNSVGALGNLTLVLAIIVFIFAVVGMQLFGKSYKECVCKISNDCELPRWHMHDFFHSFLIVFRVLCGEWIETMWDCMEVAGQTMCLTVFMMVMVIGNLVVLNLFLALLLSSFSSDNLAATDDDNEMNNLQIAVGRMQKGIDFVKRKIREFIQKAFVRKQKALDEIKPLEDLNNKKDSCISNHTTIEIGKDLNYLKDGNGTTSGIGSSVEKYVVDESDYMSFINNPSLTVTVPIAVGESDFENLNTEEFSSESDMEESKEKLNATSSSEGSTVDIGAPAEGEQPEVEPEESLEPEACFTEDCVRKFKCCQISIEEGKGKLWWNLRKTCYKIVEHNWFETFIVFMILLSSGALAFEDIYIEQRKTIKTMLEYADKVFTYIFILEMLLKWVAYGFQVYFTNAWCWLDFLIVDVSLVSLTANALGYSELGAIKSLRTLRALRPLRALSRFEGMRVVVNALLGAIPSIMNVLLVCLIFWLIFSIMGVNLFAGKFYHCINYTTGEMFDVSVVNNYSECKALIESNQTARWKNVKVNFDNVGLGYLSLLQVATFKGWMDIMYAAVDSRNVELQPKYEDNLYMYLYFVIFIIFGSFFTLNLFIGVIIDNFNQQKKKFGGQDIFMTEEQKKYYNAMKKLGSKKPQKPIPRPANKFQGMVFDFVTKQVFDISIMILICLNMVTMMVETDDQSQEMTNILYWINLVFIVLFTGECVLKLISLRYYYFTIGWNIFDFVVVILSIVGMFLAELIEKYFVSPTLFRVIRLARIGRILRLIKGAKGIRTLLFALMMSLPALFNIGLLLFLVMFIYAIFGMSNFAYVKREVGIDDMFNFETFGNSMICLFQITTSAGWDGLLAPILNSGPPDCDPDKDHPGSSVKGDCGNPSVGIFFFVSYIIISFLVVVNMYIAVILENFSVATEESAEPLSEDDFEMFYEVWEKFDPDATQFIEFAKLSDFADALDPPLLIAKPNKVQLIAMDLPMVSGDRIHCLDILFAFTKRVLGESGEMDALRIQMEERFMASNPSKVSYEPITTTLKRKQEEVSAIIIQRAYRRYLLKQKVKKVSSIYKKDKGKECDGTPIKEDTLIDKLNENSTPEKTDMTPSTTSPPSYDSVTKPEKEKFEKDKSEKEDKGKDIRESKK
hNav1.6, sequence (Q9UQD0 whole entry): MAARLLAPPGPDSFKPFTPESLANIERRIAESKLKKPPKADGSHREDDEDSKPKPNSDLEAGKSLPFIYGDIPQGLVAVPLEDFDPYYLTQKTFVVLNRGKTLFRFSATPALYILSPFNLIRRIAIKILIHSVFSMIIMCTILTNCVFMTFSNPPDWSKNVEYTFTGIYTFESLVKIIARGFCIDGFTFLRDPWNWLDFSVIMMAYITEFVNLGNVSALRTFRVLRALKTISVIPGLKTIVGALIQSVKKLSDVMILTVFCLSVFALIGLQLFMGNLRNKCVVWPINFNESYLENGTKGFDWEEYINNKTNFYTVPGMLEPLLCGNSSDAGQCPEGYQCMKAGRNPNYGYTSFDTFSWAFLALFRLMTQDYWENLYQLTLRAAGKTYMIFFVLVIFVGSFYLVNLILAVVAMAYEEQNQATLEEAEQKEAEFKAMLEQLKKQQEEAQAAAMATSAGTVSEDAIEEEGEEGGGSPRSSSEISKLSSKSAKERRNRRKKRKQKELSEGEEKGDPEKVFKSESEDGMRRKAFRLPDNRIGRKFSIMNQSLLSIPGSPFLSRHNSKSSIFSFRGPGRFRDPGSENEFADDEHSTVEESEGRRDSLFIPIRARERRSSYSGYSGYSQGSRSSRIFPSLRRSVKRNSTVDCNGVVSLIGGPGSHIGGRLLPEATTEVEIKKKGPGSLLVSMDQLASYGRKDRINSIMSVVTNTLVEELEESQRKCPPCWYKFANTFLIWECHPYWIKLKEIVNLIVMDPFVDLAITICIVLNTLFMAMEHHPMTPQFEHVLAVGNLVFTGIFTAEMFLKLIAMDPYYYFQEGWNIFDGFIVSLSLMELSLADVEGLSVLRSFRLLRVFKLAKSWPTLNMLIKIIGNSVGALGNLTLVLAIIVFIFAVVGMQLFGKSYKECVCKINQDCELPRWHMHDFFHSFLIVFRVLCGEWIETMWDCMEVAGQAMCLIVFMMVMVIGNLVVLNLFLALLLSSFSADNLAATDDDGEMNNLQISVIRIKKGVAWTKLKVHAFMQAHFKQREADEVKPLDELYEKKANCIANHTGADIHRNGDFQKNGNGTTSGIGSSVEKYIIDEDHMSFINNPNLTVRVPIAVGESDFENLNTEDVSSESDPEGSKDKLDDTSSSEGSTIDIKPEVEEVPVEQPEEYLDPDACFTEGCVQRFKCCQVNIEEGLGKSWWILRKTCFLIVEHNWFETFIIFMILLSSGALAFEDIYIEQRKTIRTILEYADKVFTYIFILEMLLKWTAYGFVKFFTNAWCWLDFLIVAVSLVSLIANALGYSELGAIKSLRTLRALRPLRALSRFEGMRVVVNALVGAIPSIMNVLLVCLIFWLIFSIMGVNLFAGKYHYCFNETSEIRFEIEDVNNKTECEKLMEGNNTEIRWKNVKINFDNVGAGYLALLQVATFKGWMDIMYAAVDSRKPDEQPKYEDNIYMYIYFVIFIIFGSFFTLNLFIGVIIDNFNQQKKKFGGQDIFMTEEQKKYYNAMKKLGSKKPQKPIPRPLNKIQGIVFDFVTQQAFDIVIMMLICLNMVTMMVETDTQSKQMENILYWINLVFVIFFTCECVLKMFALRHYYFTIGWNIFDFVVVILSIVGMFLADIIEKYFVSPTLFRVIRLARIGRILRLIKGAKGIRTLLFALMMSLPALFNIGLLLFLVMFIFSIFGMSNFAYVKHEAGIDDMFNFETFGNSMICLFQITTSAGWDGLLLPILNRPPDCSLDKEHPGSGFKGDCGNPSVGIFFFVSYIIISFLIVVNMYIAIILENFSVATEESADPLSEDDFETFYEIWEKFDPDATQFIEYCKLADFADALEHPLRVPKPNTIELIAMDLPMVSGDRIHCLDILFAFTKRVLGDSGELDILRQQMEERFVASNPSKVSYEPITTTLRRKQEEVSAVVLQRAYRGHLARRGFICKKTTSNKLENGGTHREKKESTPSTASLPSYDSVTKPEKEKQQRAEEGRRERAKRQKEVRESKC

IC50 (hNav1.2; [1]) | IC50 (hNav1.2; [2]) | IC50 (hNav1.2; [3]) | IC50 (hNav1.6; [4]) | IC50 (hNav1.6; [5]) | IC50 (hNav1.6; [6]) | Molecule
8.1 µM | 2.4 µM | 9.5 µM | 1.9 µM | 1.2 µM | 3.1 µM | Cc1cccc(C)c1OCCCNCc1cccc(F)c1 [Compound 552, 3-(2,6-Dimethylphenoxy)-N-(3-fluorobenzyl)propan-1-amine]
1.7 µM | 0.4 µM | > 30 µM | 3.7 µM | 1.3 µM | 21.4 µM | Cc1cccc(C)c1OCCCNCc1ccccc1-c1ccccc1 [Compound 536, N-(Biphenyl-2-ylmethyl)-3-(2,6-dimethylphenoxy)propan-1-amine]
> 10 µM | > 10 µM | > 10 µM | > 10 µM | > 10 µM | > 10 µM | Cc1nn(C)c(C)c1OCCCNCc1cccc(-c2cncnc2)c1 [Compound 645, N-(3-(Pyrimidin-5-yl)benzyl)-3-(1,3,5-trimethyl-1H-pyrazol-4-yloxy)propan-1-amine]
32.2 µM | 1.4 µM | > 1000 µM | > 1000 µM | > 1000 µM | > 1000 µM | Cc1cccc(C)c1OCCCNC(c1ccccc1)c1ccccc1 [Compound 554, N-Benzhydryl-3-(2,6-dimethylphenoxy)propan-1-amine]
4.5 µM | 2.1 µM | > 30 µM | > 30 µM | 8 µM | > 30 µM | Cc1cccc(C)c1OCCCNCc1cccc(-c2ccccc2F)c1 [Compound 556, 3-(2,6-Dimethylphenoxy)-N-((2′-fluorobiphenyl-3-yl)methyl)propan-1-amine]

More lines, now with the values behind:

Molecule | IC50 (hNav1.2; [1]) | IC50 (hNav1.2; [2]) | IC50 (hNav1.2; [3]) | IC50 (hNav1.6; [4]) | IC50 (hNav1.6; [5]) | IC50 (hNav1.6; [6])
Cc1cccc(C)c1OCCCNCc1ccc(S(N)(=O)=O)cc1 [Compound 532, 4-((3-(2,6-Dimethylphenoxy)propylamino)methyl)benzenesulfonamide] | > 10 µM | 6.1 µM | > 10 µM | > 10 µM | 8.5 µM | > 10 µM
3-((3-(2,6-Dimethylphenoxy)propylamino)methyl)benzonitrile [Compound 524] | 9.6 µM | > 10 µM | > 10 µM | 3.9 µM | > 10 µM | 7.8 µM
Cc1cccc(C)c1OCCCNCc1ccc(C#N)cc1 [Compound 519, 4-((3-(2,6-Dimethylphenoxy)propylamino)methyl)benzonitrile] | 8.3 µM | 2.1 µM | > 10 µM | 3.4 µM | 1.8 µM | 5.6 µM
COc1ccc(CNCCCOc2c(C)cccc2C)cc1 [Compound 520, 3-(2,6-Dimethylphenoxy)-N-(4-methoxybenzyl)propan-1-amine] | 2.1 µM | 1 µM | 6.3 µM | 2.6 µM | 1.5 µM | 4.9 µM
Cc1cccc(C)c1OCCCNCc1cccnc1 [Compound 528, 3-(2,6-Dimethylphenoxy)-N-(pyridin-3-ylmethyl)propan-1-amine] | 13.1 µM | 4.8 µM | 34.4 µM | 12.4 µM | 4.7 µM | 31.7 µM
